Species on record: Rattus norvegicus
Test: Open TG-GATES - Regimen: Single
Format: toxicity, organism-based, Sprague-Dawley
Design: regimen Single, gender Male, age 6 weeks
Settings: in vivo, po, 0 mg/kg, route gavage, dose level Control; for APTT / Bas / Eos / Fbg / Hb / Ht / Lym / MCH / MCHC / MCV / Mono / Neu / PT / Plat / RBC / Ret / WBC: tissue Blood; for KIDNEY_TOTAL: tissue Kidney; for LIVER: tissue Liver; for A/G / ALP / ALT / AST / BUN / CRE / Ca / Cl / DBIL / GLC / IP / K / LDH / Na / PL / RALB / TBIL / TC / TG / TP / gamma-GTP: tissue Plasma

With `CN(CCOc1ccc(CC2SC(=O)NC2=O)cc1)c1ccccn1.O=C(O)/C=C\C(=O)O` (centres undefined) [ROSIGLITAZONE MALEATE] the TERMINAL_BW (3 h) was 206.3 g, the APTT (3 h) was 15.8 s and the Bas (3 h) was 0%. The Eos (3 h) was 0.6%, the Fbg (3 h) was 216.8 mg/dL and the Hb (3 h) was 13.1 g/dL. The Ht (3 h) was 39.7%, the Lym (3 h) was 75.6% and the MCH (3 h) was 21.4 pg. For the same compound, the MCHC (3 h) was 33.1%, the MCV (3 h) was 64.7 fL and the Mono (3 h) was 9.2%. It also gave a Neu (3 h) of 14.4%, a PT (3 h) of 12 s and a Plat (3 h) of 123.6 x10_4/uL. It also gave an RBC (3 h) of 614 x10_4/ul, a Ret (3 h) of 8.6% and a WBC (3 h) of 110.6 x10_2/uL. The KIDNEY_TOTAL (3 h) was 0.6 g, the LIVER (3 h) was 9.7 g and the A/G (3 h) was 2.3. It also gave an ALP (3 h) of 1326.2 IU/L, an ALT (3 h) of 36.6 IU/L and an AST (3 h) of 71 IU/L. For the same compound, the BUN (3 h) was 13 mg/dL, the CRE (3 h) was 0.3 mg/dL and the Ca (3 h) was 11.4 mg/dL. It also gave a Cl (3 h) of 104.2 meq/L, a DBIL (3 h) of 0.012 mg/dL and a GLC (3 h) of 195.6 mg/dL. It also gave an IP (3 h) of 8.6 mg/dL, a K (3 h) of 4.4 meq/L and an LDH (3 h) of 82 IU/L. The Na (3 h) was 139.8 meq/L, the PL (3 h) was 138.2 mg/dL and the RALB (3 h) was 3.7 g/dL. It also gave a TBIL (3 h) of 0.046 mg/dL, a TC (3 h) of 76 mg/dL and a TG (3 h) of 71.4 mg/dL. The TP (3 h) was 5.4 g/dL, the gamma-GTP (3 h) was 0.6 IU/L and the TERMINAL_BW (6 h) was 205.9 g. It also gave an APTT (6 h) of 15.9 s, a Bas (6 h) of 0% and an Eos (6 h) of 1.2%. It also gave a Fbg (6 h) of 220.2 mg/dL, a Hb (6 h) of 13.2 g/dL and a Ht (6 h) of 40%. It also gave a Lym (6 h) of 80.2%, an MCH (6 h) of 21.6 pg and an MCHC (6 h) of 32.9%. It also gave an MCV (6 h) of 65.7 fL, a Mono (6 h) of 4.4% and a Neu (6 h) of 14.6%. The PT (6 h) was 12.2 s, the Plat (6 h) was 117 x10_4/uL and the RBC (6 h) was 609.4 x10_4/ul. It also gave a Ret (6 h) of 9.7%, a WBC (6 h) of 92.8 x10_2/uL and a KIDNEY_TOTAL (6 h) of 0.7 g. For the same compound, the LIVER (6 h) was 9.7 g, the A/G (6 h) was 2.3 and the ALP (6 h) was 1368.6 IU/L. The ALT (6 h) was 35.6 IU/L, the AST (6 h) was 66.6 IU/L and the BUN (6 h) was 10.4 mg/dL. The CRE (6 h) was 0.3 mg/dL, the Ca (6 h) was 11.3 mg/dL and the Cl (6 h) was 104.2 meq/L. For the same compound, the DBIL (6 h) was 0.01 mg/dL, the GLC (6 h) was 183.4 mg/dL and the IP (6 h) was 8.9 mg/dL. It also gave a K (6 h) of 4.4 meq/L, an LDH (6 h) of 79.2 IU/L and a Na (6 h) of 138.6 meq/L. For the same compound, the PL (6 h) was 143.4 mg/dL, the RALB (6 h) was 3.7 g/dL and the TBIL (6 h) was 0.05 mg/dL. It also gave a TC (6 h) of 83.6 mg/dL, a TG (6 h) of 70.4 mg/dL and a TP (6 h) of 5.3 g/dL. For the same compound, the gamma-GTP (6 h) was 1 IU/L, the TERMINAL_BW (9 h) was 204 g and the APTT (9 h) was 15.7 s. It also gave a Bas (9 h) of 0%, an Eos (9 h) of 0.6% and a Fbg (9 h) of 221.4 mg/dL. It also gave a Hb (9 h) of 12.8 g/dL, a Ht (9 h) of 39.1% and a Lym (9 h) of 73.4%. For the same compound, the MCH (9 h) was 21.6 pg, the MCHC (9 h) was 32.9% and the MCV (9 h) was 65.6 fL. It also gave a Mono (9 h) of 7.8%, a Neu (9 h) of 18.4% and a PT (9 h) of 11.9 s. The Plat (9 h) was 123 x10_4/uL, the RBC (9 h) was 597 x10_4/ul and the Ret (9 h) was 9%. It also gave a WBC (9 h) of 93.6 x10_2/uL, a KIDNEY_TOTAL (9 h) of 0.7 g and an LIVER (9 h) of 8.8 g. For the same compound, the A/G (9 h) was 2.4, the ALP (9 h) was 1162.4 IU/L and the ALT (9 h) was 34.2 IU/L. For the same compound, the AST (9 h) was 68.8 IU/L, the BUN (9 h) was 10.8 mg/dL and the CRE (9 h) was 0.3 mg/dL. For the same compound, the Ca (9 h) was 11 mg/dL, the Cl (9 h) was 104.8 meq/L and the DBIL (9 h) was 0.01 mg/dL. For the same compound, the GLC (9 h) was 184 mg/dL, the IP (9 h) was 10 mg/dL and the K (9 h) was 4.5 meq/L. For the same compound, the LDH (9 h) was 85 IU/L, the Na (9 h) was 139.8 meq/L and the PL (9 h) was 137.4 mg/dL. For the same compound, the RALB (9 h) was 3.8 g/dL, the TBIL (9 h) was 0.046 mg/dL and the TC (9 h) was 87.6 mg/dL. For the same compound, the TG (9 h) was 45.2 mg/dL, the TP (9 h) was 5.4 g/dL and the gamma-GTP (9 h) was 1 IU/L. It also gave a TERMINAL_BW (24 h) of 219.8 g, an APTT (24 h) of 16.5 s and a Bas (24 h) of 0%. For the same compound, the Eos (24 h) was 1%, the Fbg (24 h) was 225 mg/dL and the Hb (24 h) was 12.8 g/dL. For the same compound, the Ht (24 h) was 38.9%, the Lym (24 h) was 79.4% and the MCH (24 h) was 21.5 pg. For the same compound, the MCHC (24 h) was 32.8%, the MCV (24 h) was 65.6 fL and the Mono (24 h) was 5.2%. The Neu (24 h) was 14.4%, the PT (24 h) was 11.7 s and the Plat (24 h) was 124.2 x10_4/uL. The RBC (24 h) was 593 x10_4/ul, the Ret (24 h) was 8% and the WBC (24 h) was 92.8 x10_2/uL. The KIDNEY_TOTAL (24 h) was 0.7 g, the LIVER (24 h) was 10.7 g and the A/G (24 h) was 2.3. For the same compound, the ALP (24 h) was 1499.4 IU/L, the ALT (24 h) was 38.4 IU/L and the AST (24 h) was 66.4 IU/L. It also gave a BUN (24 h) of 15.4 mg/dL, a CRE (24 h) of 0.4 mg/dL and a Ca (24 h) of 11.5 mg/dL. It also gave a Cl (24 h) of 104 meq/L, a DBIL (24 h) of 0.016 mg/dL and a GLC (24 h) of 188.4 mg/dL. The IP (24 h) was 7.7 mg/dL, the K (24 h) was 4.4 meq/L and the LDH (24 h) was 97 IU/L. The Na (24 h) was 140.4 meq/L, the PL (24 h) was 164.2 mg/dL and the RALB (24 h) was 3.9 g/dL. It also gave a TBIL (24 h) of 0.038 mg/dL, a TC (24 h) of 94.4 mg/dL and a TG (24 h) of 107 mg/dL. The TP (24 h) was 5.6 g/dL and the gamma-GTP (24 h) was 1 IU/L.
